Measurements: paper PMC11527929 (European Journal of Nuclear Medicine and Molecular Imaging, 2024)
pIC50: −log10 of the molar value.

Experiments:
H446 cells [1] = assay: Clonogenic assay; format: cell-based, human; conditions: 0.5 µM PARPi 72 h and/or 12.5 kBq [177Lu]Lu-DOTA-TOC 24 h, colonies after 7 days, mean of 2 independent experiments
Description: H446 cells were seeded in 6-well plates 48 h prior to the experiment. […] Following treatment, compounds were removed, and fresh medium was added. After 7 days, colonies were fixed with cold methanol, stained with 5% crystal violet in PBS and subsequently counted. Survival fractions were calculated by dividing the plating efficiency as counted colonies divided by seeded cells of the respective treatment group through the plating efficiency of the untreated control group.

H69 xenografts [2] = assay: In vivo treatment study, single PRRT dose; design: species or system athymic nude mice; conditions: for tumor doubling time: PARPi 10 mg/kg i.p. days 1–5 and 8–12, PRRT ~40 MBq single dose on day 3, untreated 3.6 days; for time after start of treatment to mean tumor volume of 400 mm^3: untreated 10 days
Description: Authorization for all animal experiments was obtained from the Regierung von Oberbayern. Mice were housed under specific-pathogen free conditions with access to mouse chow and water ad libitum. […] Animals were regularly monitored as defined in the license.
Mice in the PARPi and combination therapy groups received daily i.p. injections of PARPi on days 1–5 and 8–12 at a dose of 10 mg/kg. […] Length, width and depth of the subcutaneous tumors were measured daily using a caliper and tumor volume was calculated using the ellipsoid formula. Mice were weighed regularly after start of the treatment. Mice were euthanized when they reached pre-defined criteria. […] In the H69 cohort, one animal per group was euthanized 3 days after PRRT (or equivalent time) and tumor, bone and kidney tissues were processed for histopathology.

H446 cells [3] = assay: Cell viability, AlamarBlue HS assay; format: cell-based; conditions: Homo sapiens, NCI-H446, PARPi alone for 72 h, 3 independent experiments
Description: (§1) Cell viability was determined using the AlamarBlue high sensitivity (HS) assay (Thermo Fisher Scientific, #A50101). 5,000 cells per well were seeded in 96-well black clear F-bottom plates (H446) or 96-well black clear V-bottom plates (H69). H69 suspension cells were centrifuged and resuspended for each washing step. […] All wells, including untreated wells, contained 0.5% (v/v) DMSO throughout the assay. 96 h after seeding, medium was removed and resazurin (AlamarBlue HS) solution was added to each well at a final concentration of 10% (v/v) and incubated for 1 h at 37 °C before fluorescence was measured using a Biotek Synergy HT plate reader (Excitation: 540/35 nm, Emission: 590/20 nm). Relative viability was calculated in relation to “untreated” wells. We carried out three biological repeats with 3–6 technical replicates per plate. IC50-values were computed by applying the nonlinear regression function (Dose–response – Inhibition; Inhibitor vs. normalized response) in GraphPad Prism 9.

H69 cells = assay: Cell viability, AlamarBlue HS assay; format: cell-based; conditions: Homo sapiens, NCI-H69, PARPi alone for 72 h, 3 independent experiments
Description: as §1

SCLC = conditions: six SCLC patients; no response on CT scans; cited from earlier work
From the text: An alternative therapeutic approach for extended-stage disease could be peptide-receptor radionuclide therapy (PRRT) with somatostatin receptor (SSTR) ligands. The vast majority of SCLC (> 80%) express neuroendocrine markers, and about 50% of all SCLCs express significant levels of somatostatin-receptor type 2 (SSTR2). […] To date, clinical outcomes of retrospective series, which investigated SSTR2-targeted PRRT in SCLC have been rather inconclusive. In one trial, six patients treated with ^90Y-D ...

H69 xenografts [4] = assay: In vivo treatment study, fractionated PRRT dose; design: species or system athymic nude mice; conditions: three-fractionated arm: 3 × 20 MBq PRRT days 3, 9, 15, Olaparib 10 mg/kg i.p. days 1–5, 7–11, 13–17, untreated 27 days
Description: (§2) Authorization for all animal experiments was obtained from the Regierung von Oberbayern. Mice were housed under specific-pathogen free conditions with access to mouse chow and water ad libitum. Female 7–8 weeks old athymic nude mice (Crl:NU/NCr-Foxn1nu, Charles River Laboratories, Sulzfeld) were subcutaneously injected with 1–4 × 10^6 H69 or H446 cells in 1:1 RPMI-1640 medium:Matrigel (Corning Inc., #11543550). Animals were regularly monitored as defined in the license.
Prior to the beginning of treatment, mice were randomly assigned to 7 treatment groups (n = 5–6 animals/group) with an initial mean tumor volume of approx. 50 mm^3 per group (Supplementary Fig. 2C). […] Body weight and tumor volumes were determined every 2–3 days. Animals were sacrificed when pre-defined endpoint criteria or humane endpoint was reached. In this study, only the pre-defined endpoint, a tumor volume of 1000 mm^3 with a maximal size of ≤ 15 mm in a single dimension, was reached. After a maximum observation period of 4 weeks after the last treatment, the study terminated in accordance with the animal protocol.

H446 xenografts = assay: In vivo treatment study, single PRRT dose; design: species or system athymic nude mice; conditions: for tumor doubling time: PARPi 10 mg/kg i.p. days 1–5 and 8–12, PRRT ~40 MBq single dose on day 3, untreated 3.6; for median survival: single PRRT dose study, untreated 12 days
Description: as §2
(§3) 10–15 days after xenografting, mice were randomized into 4 (H446) or 6 (H69) groups after stratification for tumor size to ensure a uniform initial tumor size distribution (H446: ~ 150 mm^3; H69: ~ 60 mm^3; Supplementary Fig. 2A, B). Mice in the PARPi and combination therapy groups received daily i.p. injections of PARPi on days 1–5 and 8–12 at a dose of 10 mg/kg. […] Length, width and depth of the subcutaneous tumors were measured daily using a caliper and tumor volume was calculated using the ellipsoid formula. Mice were weighed regularly after start of the treatment. Mice were euthanized when they reached pre-defined criteria. During the study, only the criteria of tumor growth (single dimension ≤ 15 mm) or maximum observation time came into effect. In the H69 cohort, one animal per group was euthanized 3 days after PRRT (or equivalent time) and tumor, bone and kidney tissues were processed for histopathology.

bone marrow and kidney = assay: Histopathology (H&E) after in vivo treatment; design: species or system athymic nude mice; conditions: H69 cohort, single dose study; day 3 after PRRT; one animal per group
Description: as §3
All samples were fixated in 4% PFA for 24 h and subsequently stored in 70% ethanol at 4 °C until the radioactivity had fully decayed. Samples containing bone for bone marrow analysis were decalcified using OSTEOSOFT® (Merck) solution. Formalin-fixed paraffin embedded (FFPE) tissues were cut into 2 µm sections using a microtome. After deparaffinization and rehydration, tissue sections were subjected to standard H&E staining. Tumor sections were additionally subjected to IHC. […]

Row | SMILES | mean surviving fraction, of untreated cells (H446 cells [1]) [%] | tumor doubling time (H69 xenografts [2]) [days] | time after start of treatment to mean tumor volume of 400 mm^3 (H69 xenografts [2]; single PRRT dose study) [days] | pIC50 (H446 cells [3]) | pIC50 (H69 cells) | median progression-free survival (SCLC) [days] | median survival (H69 xenografts [4]) [days] | median survival (H69 xenografts [2]; single PRRT dose study, untreated 18 days) [days] | tumor doubling time (H446 xenografts) [days] | median survival (H446 xenografts) [days] | angiectasis in the bone marrow (H&E) (bone marrow and kidney) | bone marrow cellularity (H&E) (bone marrow and kidney)
1 | O=C(c1cc(Cc2n[nH]c(=O)c3ccccc23)ccc1F)N1CCN(C(=O)C2CC2)CC1 [Olaparib] | 7 | 4.0 | 13 | 4.40 to 4.70 | 4.40 to 4.70 | – | – | – | – | – | – | –
2 | C[C@@H](O)[C@@H]1NC(=O)[C@H](CCCCN)NC(=O)[C@@H](Cc2c[nH]c3ccccc23)NC(=O)[C@H](Cc2ccc(O)cc2)NC(=O)[C@@H](NC(=O)[C@@H](Cc2ccccc2)NC(=O)CN2CCN(CC(=O)[O-])CCN(CC(=O)[O-])CCN(CC(=O)[O-])CC2)CSSC[C@@H](C(=O)N[C@H](CO)[C@@H](C)O)NC1=O.[90Y+3] [^90Y-DOTATOC] | – | – | – | – | – | 38 | – | – | – | – | – | –
3 | C[C@@H](O)[C@@H]1NC(=O)[C@H](CCCCN)NC(=O)[C@@H](Cc2c[nH]c3ccccc23)NC(=O)[C@H](Cc2ccc(O)cc2)NC(=O)[C@@H](NC(=O)[C@@H](Cc2ccccc2)NC(=O)CN2CCN(CC(=O)O)CCN(CC(=O)O)CCN(CC(=O)O)CC2)CSSC[C@@H](C(=O)N[C@H](CO)[C@@H](C)O)NC1=O [[^177Lu]Lu-DOTA-TOC, metal not drawn] | – | 6.4 | 17 | – | – | – | 34 | 24 | 3.7 | 11 | – | –
4 | CNCc1ccc(-c2[nH]c3cc(F)cc4c3c2CCNC4=O)cc1 [Rucaparib] | 13 | 4.1 | 13 | 4.40 to 4.70 | 4.40 to 4.70 | – | – | – | 3.9 | 13 | low levels of angiectasis | slight bone marrow hypercellularity
